Laboratory results: patent publication US20150307938A1, “METHOD TO IDENTIFY A NOVEL CLASS OF IMMUNOLOGIC ADJUVANTS” (Lancell, L.L.C., priority 2011, published 2015)

Test system: skin
Experiment: Affymetrix microarray of skin, DBP-4 hr and analogs vs. untreated; gene selection by log-2 fold change, Wilcoxon, Kendall tau (Tables 8, 9)
Type: in vivo, mouse

CCCCOC(=O)c1ccccc1C(=O)OCCCC [DBP, dibutylphthalate]
No: Wilcoxon: Diablo (gene Diablo, NM_023232_at, DBP-4 hr vs. untreated) | Wilcoxon: Dmap1 (gene Dmap1, NM_023178_at, DBP-4 hr vs. untreated) | Wilcoxon: Dnajc4 (gene Dnajc4, NM_020566_at, DBP-4 hr vs. untreated) | Wilcoxon: Eid1 (gene Eid1, NM_025613_at, DBP-4 hr vs. untreated) | Wilcoxon: Eif6 (gene Eif6, NM_010579_at, DBP-4 hr vs. untreated) | Wilcoxon: Erlec1 (gene Erlec1, NM_025745_at, DBP-4 hr vs. untreated) | Wilcoxon: Fam134b (gene Fam134b, NM_025459_at, DBP-4 hr vs. untreated) | Wilcoxon: Fbxo25 (gene Fbxo25, NM_025785_at, DBP-4 hr vs. untreated) | Wilcoxon: Fgf13 (gene Fgf13, NM_010200_at, DBP-4 hr vs. untreated) | Wilcoxon: Flt1 (gene Flt1, NM_010228_at, DBP-4 hr vs. untreated) | Wilcoxon: Fmo5 (gene Fmo5, NM_010232_at, DBP-4 hr vs. untreated) | Wilcoxon: Ftsj3 (gene Ftsj3, NM_025310_at, DBP-4 hr vs. untreated) | Wilcoxon: Gcnt2 (gene Gcnt2, NM_023887_at, DBP-4 hr vs. untreated) | Wilcoxon: Gmcl1 (gene Gmcl1, NM_011818_at, DBP-4 hr vs. untreated) | Wilcoxon: Gpn3 (gene Gpn3, NM_024216_at, DBP-4 hr vs. untreated) | Wilcoxon: Gstz1 (gene Gstz1, NM_010363_at, DBP-4 hr vs. untreated) | Wilcoxon: Gtf2h2 (gene Gtf2h2, NM_022011_at, DBP-4 hr vs. untreated) | Wilcoxon: Gtf3a (gene Gtf3a, NM_025652_at, DBP-4 hr vs. untreated) | Wilcoxon: Hsdl2 (gene Hsdl2, NM_024255_at, DBP-4 hr vs. untreated) | Wilcoxon: Icos (gene Icos, NM_017480_at, DBP-4 hr vs. untreated) | Wilcoxon: Ifngr1 (gene Ifngr1, NM_010511_at, DBP-4 hr vs. untreated) | Wilcoxon: Inpp5d (gene Inpp5d, NM_010566_at, DBP-4 hr vs. untreated) | Wilcoxon: Itgax (gene Itgax, NM_021334_at, DBP-4 hr vs. untreated) | Wilcoxon: Itk (gene Itk, NM_010583_at, DBP-4 hr vs. untreated) | Wilcoxon: Krt17 (gene Krt17, NM_010663_at, DBP-4 hr vs. untreated) | Wilcoxon: Map3k14 (gene Map3k14, NM_016896_at, DBP-4 hr vs. untreated) | Wilcoxon: Mdp1 (gene Mdp1, NM_023397_at, DBP-4 hr vs. untreated) | Wilcoxon: Meis1 (gene Meis1, NM_010789_at, DBP-4 hr vs. untreated) | Wilcoxon: Mkrn3 (gene Mkrn3, NM_011746_at, DBP-4 hr vs. untreated) | Wilcoxon: Mtcp1 (gene Mtcp1, NM_010839_at, DBP-4 hr vs. untreated) | Wilcoxon: Mum1 (gene Mum1, NM_023431_at, DBP-4 hr vs. untreated) | Wilcoxon: Myd88 (gene Myd88, NM_010851_at, DBP-4 hr vs. untreated) | Wilcoxon: Nagk (gene Nagk, NM_019542_at, DBP-4 hr vs. untreated) | Wilcoxon: Ndufaf3 (gene Ndufaf3, NM_023247_at, DBP-4 hr vs. untreated) | Wilcoxon: Nek3 (gene Nek3, NM_011848_at, DBP-4 hr vs. untreated) | Wilcoxon: Nfkb2 (gene Nfkb2, NM_019408_at, DBP-4 hr vs. untreated) | Wilcoxon: Nicn1 (gene Nicn1, NM_025449_at, DBP-4 hr vs. untreated) | Wilcoxon: Nme3 (gene Nme3, NM_019730_at, DBP-4 hr vs. untreated) | Wilcoxon: Ntpcr (gene Ntpcr, NM_025636_at, DBP-4 hr vs. untreated) | Wilcoxon: Orc3 (gene Orc3, NM_015824_at, DBP-4 hr vs. untreated) | Wilcoxon: Padi1 (gene Padi1, NM_011059_at, DBP-4 hr vs. untreated) | Wilcoxon: Panx1 (gene Panx1, NM_019482_at, DBP-4 hr vs. untreated) | Wilcoxon: Pfdn2 (gene Pfdn2, NM_011070_at, DBP-4 hr vs. untreated) | Wilcoxon: Phtf1 (gene Phtf1, NM_013629_at, DBP-4 hr vs. untreated)
Yes: Kendall: Dda1 (gene Dda1, NM_025600_at, gene expression vs. output) | Kendall: Diablo (gene Diablo, NM_023232_at, gene expression vs. output) | Kendall: Dmap1 (gene Dmap1, NM_023178_at, gene expression vs. output) | Kendall: Dnajc4 (gene Dnajc4, NM_020566_at, gene expression vs. output) | Kendall: Eid1 (gene Eid1, NM_025613_at, gene expression vs. output) | Kendall: Eif6 (gene Eif6, NM_010579_at, gene expression vs. output) | Kendall: Erlec1 (gene Erlec1, NM_025745_at, gene expression vs. output) | Kendall: Fam134b (gene Fam134b, NM_025459_at, gene expression vs. output) | Kendall: Fbxo25 (gene Fbxo25, NM_025785_at, gene expression vs. output) | Kendall: Fgf13 (gene Fgf13, NM_010200_at, gene expression vs. output) | Kendall: Flt1 (gene Flt1, NM_010228_at, gene expression vs. output) | Kendall: Fmo5 (gene Fmo5, NM_010232_at, gene expression vs. output) | Kendall: Ftsj3 (gene Ftsj3, NM_025310_at, gene expression vs. output) | Kendall: Gcnt2 (gene Gcnt2, NM_023887_at, gene expression vs. output) | Kendall: Gmcl1 (gene Gmcl1, NM_011818_at, gene expression vs. output) | Kendall: Gpn3 (gene Gpn3, NM_024216_at, gene expression vs. output) | Kendall: Gstz1 (gene Gstz1, NM_010363_at, gene expression vs. output) | Kendall: Gtf2h2 (gene Gtf2h2, NM_022011_at, gene expression vs. output) | Kendall: Gtf3a (gene Gtf3a, NM_025652_at, gene expression vs. output) | Kendall: Hsdl2 (gene Hsdl2, NM_024255_at, gene expression vs. output) | Kendall: Icos (gene Icos, NM_017480_at, gene expression vs. output) | Kendall: Ifngr1 (gene Ifngr1, NM_010511_at, gene expression vs. output) | Kendall: Inpp5d (gene Inpp5d, NM_010566_at, gene expression vs. output) | Kendall: Itgax (gene Itgax, NM_021334_at, gene expression vs. output) | Kendall: Itk (gene Itk, NM_010583_at, gene expression vs. output) | Kendall: Krt17 (gene Krt17, NM_010663_at, gene expression vs. output) | Kendall: Map3k14 (gene Map3k14, NM_016896_at, gene expression vs. output) | Kendall: Mdp1 (gene Mdp1, NM_023397_at, gene expression vs. output) | Kendall: Meis1 (gene Meis1, NM_010789_at, gene expression vs. output) | Kendall: Mkrn3 (gene Mkrn3, NM_011746_at, gene expression vs. output) | Kendall: Mtcp1 (gene Mtcp1, NM_010839_at, gene expression vs. output) | Kendall: Mum1 (gene Mum1, NM_023431_at, gene expression vs. output) | Kendall: Myd88 (gene Myd88, NM_010851_at, gene expression vs. output) | Kendall: Nagk (gene Nagk, NM_019542_at, gene expression vs. output) | Kendall: Ndufaf3 (gene Ndufaf3, NM_023247_at, gene expression vs. output) | Kendall: Nek3 (gene Nek3, NM_011848_at, gene expression vs. output) | Kendall: Nfkb2 (gene Nfkb2, NM_019408_at, gene expression vs. output) | Kendall: Nicn1 (gene Nicn1, NM_025449_at, gene expression vs. output) | Kendall: Nme3 (gene Nme3, NM_019730_at, gene expression vs. output) | Kendall: Ntpcr (gene Ntpcr, NM_025636_at, gene expression vs. output) | Kendall: Orc3 (gene Orc3, NM_015824_at, gene expression vs. output) | Kendall: Padi1 (gene Padi1, NM_011059_at, gene expression vs. output) | Kendall: Panx1 (gene Panx1, NM_019482_at, gene expression vs. output) | Kendall: Pfdn2 (gene Pfdn2, NM_011070_at, gene expression vs. output) | Kendall: Phtf1 (gene Phtf1, NM_013629_at, gene expression vs. output)
